# Reference: patent US9145436B2 (priority 2010, dated 2015)
# Assays:
# [1] = tested on: IL-12 production in J774 cells; assay: Cytokine production in stimulated J774 cells, IL-12 (ELISA); assay type: cell-based; conditions: Normal (LPS 0.1 μg/mL)
# Procedure: (§1) Various analogs were compared in vitro to determine key properties. Antibacterial effect was determined in representative Gram negative (E. coli) and positive (S. aureus) organisms using the method of example 16. Effects on lung inflammation were compared using the method of example 32. BALF (Bronchoalveolar Lavage Fluid) TNFa levels are determined by ELISA. In vitro toxicity is determined by growth inhibition of Jurkat lymphocytes in DMEM medium as determined using Alamar Blue reaction. Effects on cytokine production are determined in J774 cells stimulated with either LPS (0.1 μg/mL) or medium from J774 cells stimulated for 24 h with 0.2 μg/mL LPS. Cytokines are determined by ELISA and expressed as % DMSO control at 50 μM inhibitor concentration.
# [2] = tested on: plasma TNFalpha; assay: Liver inflammation induced by LPS, plasma TNFalpha; assay type: in vivo, Lewis rats; conditions: 10 or 50 mg/kg; LPS 4 mg/kg i.p.; relative to vehicle treated controls
# Procedure: FIG. 12. Plasma TNFa production in Lewis rats in which liver damage is induced via injection of LPS (4 mg/kg), data are the mean of N=8 and are plotted with the 95% confidence interval.
# Application of high doses of LPS, e.g. 4 mg/kg i.p. results in the induction of liver inflammation and necrosis. This is reflected in signs such as elevated plasma TNFalpha levels. […] Data are recorded in FIG. 12.
# [3] = Ames test (mutagenicity); assay type: cell-based; conditions: up to 800 μg/plate (approx. 70 μM); absence and presence of metabolically active liver extract
# Procedure: The Ames test is well known in the art. To determine the mutagenic potential of compound 2, it was conducted up to a concentration of 800 μg/plate (approx. 70 μM, considering 20 ml medium in a petri dish).
# [4] = tested on: GM_CSF production in J774 cells; assay: Cytokine production in stimulated J774 cells, GM-CSF (ELISA); assay type: cell-based; conditions: Cond. (medium from J774 cells stimulated 24 h with 0.2 μg/mL LPS)
# Procedure: as §1
# [5] = target: T1, hERG (Homo sapiens, UniProt Q12809); assay: hERG inhibition in Chinese hamster ovary cells expressing the hERG c-DNA (K+ currents); assay type: cell-based; conditions: CHO cells expressing hERG
# T1 construct: expressed in transfected cells; host or cells: Chinese hamster ovary (CHO) cells
# Procedure: A major drawback of macrocycles is the inhibition of cardiac ion channels and specifically the channel encoded by the hERG gene inhibition of which is associated with “long Q-T” syndrome in some patients. To determine risk of hERG inhibition, Compounds 2 and 3 were incubated with Chinese hamster ovary cells expressing the hERG c-DNA resulting in detectable K+ currents associated with hERG at the cell surface.
# [6] = tested on: TNFa production in J774 cells; assay: Cytokine production in stimulated J774 cells, TNFa (ELISA); assay type: cell-based; conditions: Normal (LPS 0.1 μg/mL)
# Procedure: as §1
# [7] = tested on: HepG2; assay: Cytotoxicity of the substances (TC50), HepG2; assay type: cell-based; set-up: unit not given beside the values; conditions: HepG2 cells
# [8] = tested on: IL-10 production in J774 cells; assay: Cytokine production in stimulated J774 cells, IL-10 (ELISA); assay type: cell-based; conditions: Normal (LPS 0.1 μg/mL)
# Procedure: as §1
# [9] = tested on: E. coli; assay: Antibiotic dilution assay, E. coli; assay type: cell-based; conditions: Escherichia coli; liquid medium, OD600; read-out: Bacterial IC 50 (μM) E. Coli
# Procedure: (§2) The antibiotic activity of the compounds was determined via antibiotic dilution assay. After filling 100 μl growth medium into all the wells of a 96 well plate, the compounds were diluted from 1 mM to 0.010 μM. The growth control wells contained growth medium instead of inhibitory agents. The inhibitory control contained Compound 3 (200 μM). Suspensions of E. coli and B. pumilus in growth medium with an approximate OD600 of 0.03-0.04 were added to the diluted compounds, incubated for 6-8 hours on the shaker at 750 rpm and 37° C. until the growth control had reached an OD600 of about 0.6-0.8. The OD600 was then determined on a standard plate reader.
# as §1
# [10] = Toxicity on oral administration for 7 days; assay type: in vivo; conditions: orally as a suspension up to 400 μmole/kg/day for 7 days
# Procedure: (§3) To determine the potential for toxic effects of compound 2 in higher animals, compound 2 was administered to bALBc mice orally as a suspension up to a dose of 400 μmole/kg/day for 7 days.
# [11] = Exposure by LCMS analysis of organs; assay type: in vivo, bALBc mice
# Procedure: as §3
# Exposure to the compound was confirmed using LCMS analysis of organs. […] A mild increase in Compound 2 concentration relative the average bodily dose in liver and spleen is clear after 2 h. In kidney the increase appears later, after 24 h.
# [12] = tested on: S. aureus; assay: Antibiotic dilution assay, S. aureus; assay type: cell-based; conditions: Staphylococcus aureus; liquid medium, OD600; read-out: Bacterial IC 50 (μM) S. Aureus
# Procedure: as §2, §1
# [13] = tested on: collagen arthritis model; assay: Collagen arthritis model; assay type: in vivo, Male DBA mice; conditions: administered prior to or at the start of arthritis; 2 to 40 μmol kg−1; vs vehicle
# Procedure: The data are obtained using the collagen arthritis model. Male DBA mice (18-22 g) are subcutaneously injected at the tail base with bovine type II collagen (100 μL) on day 1 and day 21. Onset of arthritis occurs over the next 5 days. Treatments are typically selected from A) a mixture of a Compound such as Compound 2 (between 2 to 40 μmol kg^−1) and the vehicle which is typically 1% citratic acid in water or similar. The effect of treatment on arthritis is monitored daily by assessing body weight, paw thickness and qualitative evidence of arthritis (scored from 0 to 3, 0=no evidence of arthritis or inflammation, 3=frank swelling of the paw). At the end of qualitative assessment, animals are sacrificed for toxicological, histological and pathological analysis.
# [14] = tested on: DSS induced colitis; assay: Dextransulfate (DSS) model of inflammatory bowel disease; assay type: in vivo, female C57BLK6 mice; conditions: DSS 2.5% W/V in drinking water; relative to known compounds such as sulfasalazine
# From the text: Dextransulfate (DSS) is used to induce an inflammatory state in the gut of mice by providing it in the drinking water. In our model, DSS (ICN) was used at 2.5% W/V in drinking water for female C57BLK6 mice (ca. 20 g). Weight was monitored daily as were diarrhea, overall condition and occult blood. Depending on severity, animals were recovered at 5, 7 or 12 days after onset of DSS treatment, and colon and intestine material recovered for histological examination.
# [15] = tested on: BALF TNFa; assay: Airway inflammation by inhaled LPS, BALF TNFa by ELISA; assay type: in vivo, DBA or Swiss female mice; conditions: 20 μmol/kg i.n., 30 minutes prior to LPS challenge
# Procedure: as §1
# Airway inflammation is induced by inhalation of solutions containing bacterial LPS. 10 μg per mouse is provided intranasally in phosphate buffered saline. 90 minutes after challenge, bronchioalveolar lavage fluid is recovered from the lung using PBS (0.5 mL) injected into the lung via the trachea and frozen prior to analysis for cytokines by ELISA. TNFa is the primary cytokine measured. Compound 2 and other test substances are dissolved in 0.02% citric acid in water, and the pH of the resulting solution is set to 6.2. Compounds are administered 30 minutes prior to challenge either as 25 μL solutions for intranasal use, or as 125 μL volumes for p.o. application in 25 g DBA or Swiss female mice. The results of said interventions include reduction of lung and/or plasma cytokines. Example data are recorded in FIG. 13.
# [16] = tested on: Jurkat lymphocytes; assay: In vitro toxicity: growth inhibition of Jurkat lymphocytes, Alamar Blue; assay type: cell-based; conditions: DMEM medium
# Procedure: as §1
# [17] = tested on: HeLa; assay: Cytotoxicity of the substances (TC50), HeLa; assay type: cell-based; conditions: HeLa cells
# [18] = tested on: Jurkat; assay: Cytotoxicity of the substances (TC50), Jurkat; assay type: cell-based; conditions: Jurkat cells
# T1 sequence (Q12809 whole entry): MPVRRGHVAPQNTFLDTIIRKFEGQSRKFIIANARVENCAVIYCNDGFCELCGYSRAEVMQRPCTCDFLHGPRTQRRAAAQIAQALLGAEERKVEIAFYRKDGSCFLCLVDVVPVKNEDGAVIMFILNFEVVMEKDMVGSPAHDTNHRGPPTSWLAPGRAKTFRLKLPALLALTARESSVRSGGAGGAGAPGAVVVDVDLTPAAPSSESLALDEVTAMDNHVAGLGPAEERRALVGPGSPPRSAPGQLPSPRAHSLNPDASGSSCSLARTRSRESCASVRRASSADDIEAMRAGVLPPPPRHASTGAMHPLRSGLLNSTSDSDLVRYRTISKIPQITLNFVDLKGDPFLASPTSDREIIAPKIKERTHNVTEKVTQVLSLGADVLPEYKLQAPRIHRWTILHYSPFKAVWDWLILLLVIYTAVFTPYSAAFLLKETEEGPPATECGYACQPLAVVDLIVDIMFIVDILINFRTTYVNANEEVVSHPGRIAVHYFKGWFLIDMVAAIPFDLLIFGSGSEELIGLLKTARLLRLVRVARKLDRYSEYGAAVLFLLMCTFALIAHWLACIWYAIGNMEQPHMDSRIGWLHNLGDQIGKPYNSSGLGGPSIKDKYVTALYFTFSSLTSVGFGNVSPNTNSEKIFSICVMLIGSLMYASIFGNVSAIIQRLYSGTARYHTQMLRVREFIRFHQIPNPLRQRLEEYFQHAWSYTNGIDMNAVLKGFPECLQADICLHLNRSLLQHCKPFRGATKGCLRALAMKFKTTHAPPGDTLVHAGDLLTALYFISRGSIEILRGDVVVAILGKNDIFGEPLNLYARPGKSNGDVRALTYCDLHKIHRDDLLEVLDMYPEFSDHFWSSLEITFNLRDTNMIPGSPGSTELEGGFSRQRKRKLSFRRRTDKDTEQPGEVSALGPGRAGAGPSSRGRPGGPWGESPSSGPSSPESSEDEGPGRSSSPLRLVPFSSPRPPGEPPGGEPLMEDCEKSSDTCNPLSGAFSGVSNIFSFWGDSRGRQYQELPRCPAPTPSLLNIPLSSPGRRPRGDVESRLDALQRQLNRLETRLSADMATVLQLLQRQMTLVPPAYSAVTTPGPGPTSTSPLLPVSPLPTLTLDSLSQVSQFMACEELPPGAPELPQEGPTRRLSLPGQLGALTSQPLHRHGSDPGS
structure (smiles),measurement,setting,value
CC[C@H]1OC(=O)[C@H](C)C2(O)O[C@](C)(C[C@@H](C)CN(C)[C@H](C)[C@@H](O)[C@]1(C)O)[C@H](O[C@@H]1O[C@H](C)CC(N(C)C)[C@H]1O)[C@H]2C (some centres unmarked) [Compound 2],"Cytokine production in J774 cells as % DMSO control, IL-12 Normal 50 μM",[1],42 % DMSO control
same,plasma TNF levels,[2],reduce plasma TNF levels relative to vehicle treated controls
same,mutagenic activity (Ames test),[3],no mutagenic activity
same,"Cytokine production in J774 cells as % DMSO control, GM_CSF Cond. 50 μM",[4],160 % DMSO control
same,"hERG inhibition, potency relative to Compound 3",[5],less potent inhibitor than the commercially available Compound 3
same,"Cytokine production in J774 cells as % DMSO control, TNFa Normal 50 μM",[6],68 % DMSO control
same,TC50 HepG2,[7],90
same,"Cytokine production in J774 cells as % DMSO control, IL-10 Normal 50 μM",[8],115 % DMSO control
same,IC50,[9],1000 µM
same,gross toxic effect / weight gain,[10],continued to gain weight during this period suggesting no gross toxic effect
same,accumulation in organs,"[11]; kidney, liver and spleen, LCMS, oral dosing","slightly accumulated in kidney, liver and spleen"
same,fraction of the initial value detectable in organs,[11]; within 24 h,more than 50%
same,IC50,[12],1340 µM
same,arthritis score,[13],reductions in score
same,loss in body weight associated with arthritis,[13],reduces loss in body weight
same,paw swelling,[13],"reductions in score, paw swelling"
same,diarrhea severity,[14],reductions in diarrhea severity
same,mortality,[14],reduced mortality
same,weight loss,[14],protection against weight loss
same,BALF TNFa (% Vehicle) 20 μmol/kg i.n.,[15],75 % Vehicle
same,Jurkat Cell toxicity Normal growth limit,[16],100 µM
same,TC50 HeLa,[17],>100
same,TC50 Jurkat,[18],40
